Experimental data taken from BindingDB's records for doi:10.1124/jpet.302.1.374 (University of Rochester, 2002).

Key:
[1] = biological target: Kappa-type opioid receptor (Cavia porcellus, UniProt P41144)
[2] = biological target: Delta-type opioid receptor (Sus scrofa, UniProt P79291)
Chain of Delta-type opioid receptor (P79291 whole entry): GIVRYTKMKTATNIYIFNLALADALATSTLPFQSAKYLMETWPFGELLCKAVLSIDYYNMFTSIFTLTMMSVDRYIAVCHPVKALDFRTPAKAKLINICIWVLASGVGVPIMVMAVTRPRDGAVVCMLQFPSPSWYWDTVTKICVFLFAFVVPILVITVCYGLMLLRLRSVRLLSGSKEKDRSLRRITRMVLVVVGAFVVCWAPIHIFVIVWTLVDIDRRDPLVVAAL

Chain of Kappa-type opioid receptor (P41144 whole entry): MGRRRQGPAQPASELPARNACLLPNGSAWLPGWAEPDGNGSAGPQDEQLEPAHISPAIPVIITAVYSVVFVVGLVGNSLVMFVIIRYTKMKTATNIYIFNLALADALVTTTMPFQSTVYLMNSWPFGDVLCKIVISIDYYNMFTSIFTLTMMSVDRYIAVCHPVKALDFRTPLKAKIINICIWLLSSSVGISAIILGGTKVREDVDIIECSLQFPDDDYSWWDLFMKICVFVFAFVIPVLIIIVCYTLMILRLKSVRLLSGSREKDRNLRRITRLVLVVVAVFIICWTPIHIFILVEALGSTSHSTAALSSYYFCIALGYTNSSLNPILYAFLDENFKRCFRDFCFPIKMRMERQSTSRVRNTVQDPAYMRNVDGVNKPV

**Q.** Which results are given for C[C@@H]1[C@@H]2Cc3ccc(O)cc3[C@@]1(C)CCN2CC1CC1 [(SSS)-12-Cyclopropylmethyl-13-methyl-12-aza-tricyclo[9.1.1.0*3,8*]trideca-3(8),4,6-trien-6-ol(cyclazocine)]?
**A.** Ki [1]: 0.18 nM; Ki [2]: 1.1 nM
